Like-named read-outs stand apart in the source and are kept apart here.
Tests used:
WS-1 cell lines = assay: Cytotoxicity assay on WS-1 (Example 1)
Procedure: Cytotoxicity assay. The cytotoxicity assay was performed in 96-well plates (BD Falcon). The WS-1 cell lines were provided by ATCC. The WS-1 was cultured in DMEM+10% fetal calf serum. The cells were plated in a volume of 100 μL at a density of 5000 cells per well and incubated at 37° C.+5% CO2 for 24 h to promote cell adhesion.
The plates were incubated at 37° C.+5% CO2 for 48 h. The cells were then washed with 100 μL of HBSS and 150 μL of a 2% resazurin were added to the wells.
The therapeutic index is the ratio between the toxicity on normal cells, in this case fibroblast, and the toxicity on bacteria.

Enterococcus faecalis = assay: Antibiotic assay (resazurin, Example 1), Enterococcus faecalis; type: cell-based; conditions: for IC50: read-out: IC50
Procedure: (§1) Bacteria Strain. […] The MRSA were obtained as further described below.
(§2) Antibiotic agents. Cyprofloxacin and erythromycin were provided by Sigma-Aldrich. Gentamicin sulfate and vancomycin hydrochloride were provided by Calbiochem.
(§3) Five additional strains were tested: Streptococcus pneumoniae, Streptococcus agalactiae, Streptococcus pyogenes, Enterococcus faecalis and Corynebacterium jeikeium.

Streptococcus pyogenes = assay: Antibiotic assay (resazurin, Example 1), Streptococcus pyogenes; type: cell-based; conditions: for IC50: read-out: IC50
Procedure: as §1, §2, §3

S. epidermidis = assay: Antibiotic assay (resazurin, Example 1), S. epidermidis strains
Procedure: The antibiotic assays were performed in 96-well plates (BD Falcon). The bacteria strains were inoculated in Nutrient Broth (BD) for the gram negative bacteria and Tryptic soy broth (BD) with 10% of defibrinated sheep blood (PML microbiological) for gram positive strain. All bacteria strains were dosed by spectrophotometry at 660 nm where 1 D.O=2×10^8 bacteria/mL. All bacteria were plated in their respective broth at a concentration of 450 000 bacteria/mL.
Compounds I, II and III were diluted in methanol and the above-noted antibiotic agents were diluted in water. The solvent concentration was 0.25%, which was not toxic for the bacteria. Compounds I, II and III and the above-noted antibiotic agents were tested at 8 different concentrations.
Each well contained: 100 μL of bacteria, 50 μL of the compounds tested (compound I, II, III or the above-noted antibiotic agent) and 50 μL of a 4% resazurin (Sigma) solution. The plates were incubated at 37° C. for 5 h. The fluorescence was read using a Fluoroskan Ascent™ FL (thermo) using an excitation wavelength of 530 nm and an emission wavelength of 590 nm.
Two different strains of Staphylococcus were tested, namely the S. epidermidis and the S. aureus strains.

S. aureus = assay: Antibiotic assay (resazurin, Example 1), S. aureus strains of Table 3; type: cell-based, Staphylococcus aureus; conditions: for IC50: read-out: IC50
Description: as §1, §2

Streptococcus agalactiae = assay: Antibiotic assay (resazurin, Example 1), Streptococcus agalactiae; type: cell-based; conditions: for IC50: read-out: IC50
Procedure: as §1, §2, §3

Corynebacterium jeikeium = assay: Antibiotic assay (resazurin, Example 1), Corynebacterium jeikeium; type: cell-based; conditions: Coryne. jeikeium 14139
Procedure: as §1, §2, §3

[1] = system: methicillin-resistant Staphylococcus aureus (MRSA) strains; assay: Antibiotic assay (resazurin, Example 1), MRSA strains; type: cell-based; conditions: for IC50: read-out: IC50
Summary of the method: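 Ten MRSA strains isolated from screening swabs (nares, throat, groin pus) of patients at Chicoutimi hospital were tested, with S. aureus wild-type strain ATCC25923 run alongside. Isolates were identified using the Slidex Staph-Kit and API Staph strips. Methicillin resistance was confirmed by PBP2a latex agglutination and by a Kirby-Bauer disk diffusion antibiogram on Muller-Hinton agar at 37° C.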

Streptococcus pneumoniae = assay: Antibiotic assay (resazurin, Example 1), Streptococcus pneumoniae; type: cell-based; conditions: for IC50: read-out: IC50
Procedure: as §1, §2, §3

## COc1cc(O)c(C(=O)CCc2ccc(O)cc2)c(O)c1C/C=C/c1ccc(O)cc1 [Compound I]
WS-1 cell lines
  WS-1 (toxicity on normal cells, fibroblast): 49 ± 9
Enterococcus faecalis; Ent. Faecalis 14078
  Minimum Inhibitory Concentration (MIC): (>200) μM
  IC50: > 200 µM
Enterococcus faecalis; Ent. Faecalis 14115
  Minimum Inhibitory Concentration (MIC): (>200) μM
  IC50: > 200 µM
Enterococcus faecalis; in words
  activity against Enterococcus faecalis: No activity
Streptococcus pyogenes; Strep. pyogenes 14149
  Minimum Inhibitory Concentration (MIC): (200) μM
  IC50: 118 µM
Streptococcus pyogenes; Strep. pyogenes 14152
  Minimum Inhibitory Concentration (MIC): (>200) μM
  IC50: 44 ± 10 µM
Streptococcus pyogenes; in words
  activity against Streptococcus pyogenes strain 14152: active
S. epidermidis; S. epidermidis 14069
  IC50: 5.3 ± 0.2 µM
  Minimum Inhibitory Concentration (MIC): (19.9) μM
S. epidermidis; S. epidermidis 14085
  IC50: 4.5 ± 0.3 µM
  Minimum Inhibitory Concentration (MIC): (23.5) μM
S. epidermidis; S. epidermidis 14093
  IC50: 8.6 ± 0.6 µM
  Minimum Inhibitory Concentration (MIC): (11.6) μM
S. epidermidis; S. epidermidis 14134
  IC50: 3.7 ± 0.4 µM
  Minimum Inhibitory Concentration (MIC): (19) μM
S. epidermidis; S. epidermidis 14143
  IC50: 6.7 ± 0.3 µM
  Minimum Inhibitory Concentration (MIC): (15.2) μM
S. epidermidis; in words
  activity on S. epidermidis compared with ciprofloxacin: more active than ciprofloxacin
S. aureus; S. aureus 14094
  Minimum Inhibitory Concentration (MIC): (6.54) μM
  IC50: 3.5 ± 0.3 µM
S. aureus; S. aureus 14108
  Minimum Inhibitory Concentration (MIC): (8.73) μM
  IC50: 2.7 ± 0.3 µM
S. aureus; S. aureus 14118
  Minimum Inhibitory Concentration (MIC): (5.27) μM
  IC50: 3.5 ± 0.1 µM
S. aureus; S. aureus 14154
  Minimum Inhibitory Concentration (MIC): (4.37) μM
  IC50: 2.3 ± 0.1 µM
Streptococcus agalactiae; Strep. agalactiae 14150
  Minimum Inhibitory Concentration (MIC): (200) μM
  IC50: 144 ± 2 µM
Streptococcus agalactiae; Strep. agalactiae 14151
  Minimum Inhibitory Concentration (MIC): (>200) μM
  IC50: 198 ± 3 µM
Streptococcus agalactiae; Strep. agalactiae 14153
  Minimum Inhibitory Concentration (MIC): (>200) μM
  IC50: 174 ± 3 µM
Streptococcus agalactiae; in words
  activity against Streptococcus agalactiae strain 14150: active
Corynebacterium jeikeium
  Minimum Inhibitory Concentration (MIC): (67.5) μM
Corynebacterium jeikeium; read-out: IC50
  IC50: 14 ± 3 µM
[1]; MRSA 1
  Minimum Inhibitory Concentration (MIC): (5.11) μM
  IC50: 2.2 ± 0.2 µM
[1]; MRSA 2
  Minimum Inhibitory Concentration (MIC): (5.22) μM
  IC50: 2.2 ± 0.2 µM
[1]; MRSA 3
  Minimum Inhibitory Concentration (MIC): (5.54) μM
  IC50: 2.1 ± 0.2 µM
[1]; MRSA 4
  Minimum Inhibitory Concentration (MIC): (4.82) μM
  IC50: 2.1 ± 0.2 µM
[1]; MRSA 5
  Minimum Inhibitory Concentration (MIC): (5.07) μM
  IC50: 1.7 ± 0.2 µM
[1]; MRSA 6
  Minimum Inhibitory Concentration (MIC): (5.01) μM
  IC50: 2 ± 0.2 µM
[1]; MRSA 7
  Minimum Inhibitory Concentration (MIC): (4.39) μM
  IC50: 2.1 ± 0.2 µM
[1]; MRSA 8
  Minimum Inhibitory Concentration (MIC): (4.64) μM
  IC50: 2.1 ± 0.2 µM
[1]; MRSA 9
  Minimum Inhibitory Concentration (MIC): (5.00) μM
  IC50: 2.3 ± 0.2 µM
[1]; MRSA 10
  Minimum Inhibitory Concentration (MIC): (5.15) μM
  IC50: 2.6 ± 0.2 µM
Streptococcus pneumoniae; Strep. pneumoniae 14070
  Minimum Inhibitory Concentration (MIC): (74.1) μM
  IC50: 29 ± 5 µM
Streptococcus pneumoniae; Strep. pneumoniae 14112
  Minimum Inhibitory Concentration (MIC): (66.2) μM
  IC50: 29 ± 3 µM
Streptococcus pneumoniae; Strep. pneumoniae 14138
  Minimum Inhibitory Concentration (MIC): (>200) μM
  IC50: 142 ± 12 µM
Streptococcus pneumoniae; Strep. pneumoniae 14144
  Minimum Inhibitory Concentration (MIC): (>200) μM
  IC50: > 200 µM
Streptococcus pneumoniae; Strep. pneumoniae 14148
  Minimum Inhibitory Concentration (MIC): (81.2) μM
  IC50: 40 ± 4 µM
Streptococcus pneumoniae; in words
  activity against Streptococcus pneumoniae 14070 strain: active
  activity against Streptococcus pneumoniae strain 14112: active
  activity against Streptococcus pneumoniae strain 14138: had an activity
  activity against Streptococcus pneumoniae strain 14144: not active
  activity against Streptococcus pneumoniae strain 14148: active
